Data taken from patent US20080318939A1, “METHODS FOR TREATING OPHTHALMIC DISORDERS” (priority 2007, published 2008).

Key:
leukemia cells = test: inhibition of proliferation of leukemia cells; type: cell-based; details: cells associated with a cell proliferation condition
normal bone marrow cells = test: inhibition of proliferation of normal bone marrow cells; type: cell-based; details: specificity
[1] = permeation of the blood-brain barrier

Compound	inhibition of leukemia cells (leukemia cells)	inhibition of normal bone marrow cells (normal bone marrow cells)	blood-brain barrier permeation [1]
CN1CCCC1CCNC(=O)c1cn2c3c(c(N4CCC(c5cnccn5)C4)c(F)cc3c1=O)Oc1cc3ccccc3cc1-2 (stereo not drawn) [TA1-1A]	inhibits leukemia cells	without inhibiting normal bone marrow cells	
CC(=O)N1CCN(c2nc3c(cc2F)c(=O)c(C(=O)NCCN2CCCC2)c2n(C)c4ccccc4n32)CC1 [TA4-1 A]			significantly permeates the blood-brain barrier
